Test systems include HCC-2998 colon; HCT-15 colon; HOP-62 NSCLC; HS 578T breast; SF-268 CNS; SK-MEL-5 melanoma; SR leukemia.
What all share (test): NCI anticancer screen, dose series, 48 h

“And” between values parts separate entries of the source, which are not always exact repeats. Equal values may be shown once.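 Exposure lasted 48 hours, with cells grown in 96-well plates and compounds tested at five concentrations. The concentration for 50% growth inhibition is given as GI50. TGI is the concentration that stops growth completely.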

For `COc1ccc(CN2c3ccccc3Sc3ccccc32)c(C(F)(F)F)c1`, the GI50 in the assay with HCC-2998 colon is 2000 nM; with HCT-15 colon, 489 nM; in the assay on HOP-62 NSCLC it was 604 nM; in the assay with HS 578T breast, 0.877 µM; in the assay on SF-268 CNS, 10.9 µM; in the assay on SK-MEL-5 melanoma it was 500 nM. Also, the GI50 in the assay on SR leukemia was 0.483 µM. The TGI in the assay with HCC-2998 colon is 10.3 µM; with HCT-15 colon, greater than 100 µM; in the assay on HOP-62 NSCLC it was 35.6 µM; with HS 578T breast, greater than 100 µM; in the assay with SF-268 CNS, 98.5 µM; with SK-MEL-5 melanoma, 15.7 µM. The TGI in the assay on SR leukemia was greater than 100 µM.

With `CC(C)(C)c1ccc(Oc2ccc(N)cn2)cc1`, the GI50 is greater than 100000 nM with HCC-2998 colon; 43900 nM in the assay with HCT-15 colon; greater than 100000 nM in the assay with HOP-62 NSCLC; 43.9 µM in the assay on HS 578T breast; 5.77 µM in the assay with SF-268 CNS; 25800 nM with SK-MEL-5 melanoma. Moreover, the GI50 in the assay with SR leukemia was 30 µM. Besides, the TGI is greater than 100 µM in the assay with HCC-2998 colon; greater than 100 µM in the assay with HCT-15 colon; greater than 100 µM in the assay on HOP-62 NSCLC; greater than 100 µM in the assay with HS 578T breast; greater than 100 µM with SF-268 CNS; 79.2 µM with SK-MEL-5 melanoma. For the same compound, the TGI in the assay with SR leukemia was greater than 100 µM.

In the case of `Cc1ccc(/C=N/Nc2nc(Nc3ccccc3)nc(-n3nc(C)cc3C)n2)cc1`, the GI50 was 2710 nM in the assay with HCC-2998 colon; 2630 nM in the assay with HCT-15 colon; 5270 nM in the assay with HOP-62 NSCLC; 5.03 µM in the assay with HS 578T breast; 4.42 µM with SF-268 CNS; 1770 nM in the assay on SK-MEL-5 melanoma. For the same compound, the GI50 with SR leukemia was 3.31 µM. The TGI with HCC-2998 colon was 6.6 µM; in the assay with HCT-15 colon, 46.4 µM; with HOP-62 NSCLC, 29.2 µM; with HS 578T breast it was 56.5 µM; with SF-268 CNS it was greater than 100 µM; in the assay on SK-MEL-5 melanoma it was 7.44 µM. Moreover, in the assay with SR leukemia, the TGI is greater than 100 µM.

Take `COc1ccc(Cc2coc3ccccc3c2=O)cc1OC`: the TGI with HCT-15 colon was greater than 100 µM; in the assay on HOP-62 NSCLC, greater than 100 µM; in the assay with HS 578T breast, greater than 100 µM; with SF-268 CNS, greater than 100 µM; in the assay on SK-MEL-5 melanoma, 67.8 µM; in the assay with SR leukemia it was greater than 100 µM.

In the case of `CC1(C)CNc2cc(NC(=O)c3cccnc3NCc3ccncc3)ccc21`, the GI50 with HCC-2998 colon was 39000 nM; in the assay on HCT-15 colon, 22200 nM; in the assay with HOP-62 NSCLC, 50900 nM; with HS 578T breast it was 26.8 µM; in the assay with SF-268 CNS, 28.1 µM; in the assay on SK-MEL-5 melanoma it was 16000 nM. In the assay with SR leukemia, the GI50 was 26.1 µM. Moreover, the TGI in the assay with HCC-2998 colon was greater than 100 µM; in the assay on HCT-15 colon, greater than 87.7 µM; in the assay with HOP-62 NSCLC, greater than 100 µM; in the assay on HS 578T breast it was greater than 100 µM; in the assay on SF-268 CNS, greater than 100 µM; with SK-MEL-5 melanoma it was 30.8 µM. In the assay on SR leukemia, the TGI was greater than 100 µM.

Take `C=C/C=C/[C@@H](O)CC(=C)C[C@H]1OC2[C@H](C)[C@@H](OC(=O)C[C@H]3C[C@H](OC(C)=O)C[C@@]4(C[C@@](C)(O)C[C@H](CC(=C)[C@@H](C)[C@H](OC(C)=O)[C@H](C)C(=O)C[C@@H]5C[C@H](OC)CC6(C[C@@H](O)C[C@H](/C=C\CCC[C@H]7O[C@](O)(C=C[C@H]7C)[C@H]2O)O6)O5)O4)O3)[C@@H]1O`: the GI50 in the assay with HCC-2998 colon is 0.591 nM and < 2.5 nM; in the assay on HCT-15 colon, 6.19 nM and 2.5 nM; in the assay on HOP-62 NSCLC it was 0.252 nM and 2.5 nM; with HS 578T breast, 0.00177 µM; in the assay on SF-268 CNS it was 0.00406 µM and 0.0025 µM; with SK-MEL-5 melanoma, 0.327 nM and 2.5 nM. Also, the GI50 in the assay with SR leukemia is 0.0025 µM. The TGI with HCC-2998 colon is 0.00272 µM and < 0.0025 µM; in the assay on HCT-15 colon it was greater than 9.46 µM; in the assay with HOP-62 NSCLC, greater than 25 µM; in the assay on HS 578T breast, 0.0082 µM; with SF-268 CNS it was 0.0413 µM and 0.277 µM; in the assay with SK-MEL-5 melanoma, 0.00571 µM and 0.00327 µM. The TGI in the assay on SR leukemia was greater than 25 µM.

Regarding `O=S(=O)(O)c1cc(O)c(N=Nc2ccc(O)cc2O)c2ccccc12`, the TGI with HCT-15 colon, in the assay with HOP-62 NSCLC, with HS 578T breast, in the assay with SF-268 CNS, with SK-MEL-5 melanoma and in the assay with SR leukemia was greater than 100 µM each time.

`CCCCCCCCCCCCCC[N+](C)(C)CCCCCCCCCCCCCC`: the GI50 with HCC-2998 colon is 2260 nM; with HCT-15 colon, 3330 nM; with HS 578T breast, 5.65 µM; in the assay on SF-268 CNS it was 2.92 µM; in the assay on SR leukemia it was 2.46 µM. Further, the TGI is 5.28 µM in the assay with HCC-2998 colon; greater than 100 µM in the assay on HCT-15 colon; 24.8 µM in the assay on HS 578T breast; 8.38 µM in the assay with SF-268 CNS; 9.96 µM in the assay on SR leukemia.

In the case of `COC12C=C/C(=C(/C(=O)OCc3ccccn3)C(=O)CCCCCCCCC3(OC)C=C/C(=C(/C(=O)OCc4ccccn4)C(=O)CCCCCCCC1)O3)O2`, the GI50 in the assay with HCC-2998 colon is 212 nM; with HOP-62 NSCLC, 318 nM; in the assay with HS 578T breast, 0.783 µM; with SF-268 CNS, 1.12 µM; in the assay with SK-MEL-5 melanoma, 221 nM; with SR leukemia it was 0.364 µM. The TGI is 0.518 µM with HCC-2998 colon; 1.06 µM with HOP-62 NSCLC; greater than 100 µM in the assay on HS 578T breast; 4.81 µM in the assay with SF-268 CNS; 0.492 µM in the assay on SK-MEL-5 melanoma; greater than 100 µM in the assay with SR leukemia.

As for `C[C@]12CC[C@H]3[C@@H](CC=C4C[C@@H](N5CCCC5)CC[C@@]43C)[C@@H]1C/C(=C\c1cccc(OCCN3CCOCC3)c1)[C@@H]2O`, the GI50 is 2390 nM in the assay with HCT-15 colon; 2760 nM in the assay with HOP-62 NSCLC; 2.88 µM with HS 578T breast; 13.3 µM in the assay with SF-268 CNS; 2880 nM in the assay with SK-MEL-5 melanoma; 3.03 µM with SR leukemia. Also, the TGI with HCT-15 colon is greater than 100 µM; in the assay with HOP-62 NSCLC it was 9.83 µM; in the assay on HS 578T breast it was 18.2 µM; with SF-268 CNS it was greater than 100 µM; in the assay on SK-MEL-5 melanoma it was 10.6 µM; with SR leukemia, greater than 100 µM.

Turning to `OC(COC(c1ccccc1)(c1ccccc1)c1ccccc1)C(O)CC1SCCS1` (centres undefined), the TGI in the assay with HCT-15 colon is 73.9 µM; in the assay on HOP-62 NSCLC, 30.7 µM; in the assay with HS 578T breast it was 39.7 µM; in the assay on SF-268 CNS it was 50.9 µM; in the assay with SK-MEL-5 melanoma, 40.1 µM; with SR leukemia, 0.953 µM.

Turning to `Cc1cc2c(cc1Cl)S/C(=C/C(=O)O)C(Nc1ccc3ncsc3c1)=NS2(=O)=O`, the GI50 in the assay with HCT-15 colon is 27400 nM; with HOP-62 NSCLC it was 17000 nM; in the assay on HS 578T breast, 9.81 µM; in the assay with SF-268 CNS it was greater than 23.9 µM; in the assay on SK-MEL-5 melanoma, greater than 14600 nM; in the assay with SR leukemia it was 14.6 µM. Further, the TGI is greater than 65.5 µM in the assay on HCT-15 colon; greater than 42.9 µM in the assay with HOP-62 NSCLC; greater than 40.9 µM in the assay with HS 578T breast; greater than 74.9 µM in the assay with SF-268 CNS; greater than 24 µM with SK-MEL-5 melanoma; 77.9 µM in the assay with SR leukemia.
